The record followed here is patent US9353107B2 (Aurigene Discovery Technologies Limited, priority 2012, dated 2016).

In the assay the target is T1, recombinant human ALK enzyme (ALK WT) (Homo sapiens, UniProt Q9UM73).
T1 construct: purchased Carna Biosciences 08-518
Description: ALK WT cell free enzymatic assay (TR-FRET). Particulars: 1 μM ATP; for IC50: 10 point dose response; for inhibition at 0.1 µM: compound at 100 nM; for inhibition at 0.1 µM / inhibition at 1 µM: 30 min pre-incubation; for inhibition at 1 µM: compound at 1 μM. Type of assay: biochemical. An outline of the steps:
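Read-out is TR-FRET (665 nm/615 nm ratio) using an Eu-labeled anti-phosphotyrosine antibody. Compound is pre-incubated 30 min with recombinant human ALK, then reacted 30 min with 1 μM ATP and 40 nM Poly GT substrate. Values are percent inhibition at 100 nM and 1 μM, plus IC50 from 10-point variable-slope regression.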

T1 sequence (Q9UM73 1058-1620 limits assumed): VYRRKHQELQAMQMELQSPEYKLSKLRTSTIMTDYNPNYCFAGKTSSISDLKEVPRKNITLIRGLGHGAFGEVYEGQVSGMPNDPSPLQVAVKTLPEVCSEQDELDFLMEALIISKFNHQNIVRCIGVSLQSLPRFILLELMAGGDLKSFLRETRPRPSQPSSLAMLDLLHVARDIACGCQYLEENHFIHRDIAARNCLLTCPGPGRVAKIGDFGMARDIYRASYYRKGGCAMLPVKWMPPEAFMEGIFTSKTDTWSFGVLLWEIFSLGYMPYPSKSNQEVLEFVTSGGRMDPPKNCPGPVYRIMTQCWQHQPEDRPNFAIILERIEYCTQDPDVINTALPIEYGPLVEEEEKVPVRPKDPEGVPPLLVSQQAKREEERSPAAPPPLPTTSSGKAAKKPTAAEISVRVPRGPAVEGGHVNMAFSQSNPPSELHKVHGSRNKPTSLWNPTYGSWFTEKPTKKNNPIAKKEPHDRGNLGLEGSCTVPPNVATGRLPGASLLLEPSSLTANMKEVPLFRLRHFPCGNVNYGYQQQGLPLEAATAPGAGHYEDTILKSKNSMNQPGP

As usually defined, the IC50 is the midpoint of a concentration-inhibition curve. What is called inhibition is the change of the read-out against control, counted positive when it falls. For `Cc1nn(Cc2cccc(F)c2)c(C)c1-c1c[nH]c2ncc(-c3ccc(C4CCNCC4)cc3)cc12` [Example 92, 3-(1-(3-fluorobenzyl)-3,5-dimethyl-1H-pyrazol-4-yl)-5-(4-(piperidin-4-yl)phenyl)-1H-pyrrolo[2,3-b]pyridine], the IC50 is < 50 nM, the inhibition at 0.1 µM amounted to 98% and the inhibition at 1 µM is 100%.

With `COc1nc(N2CCN(C[C@H](C)O)CC2)ccc1-c1cnc2[nH]cc(-c3cnn(Cc4cccc(F)c4)c3)c2c1` [Example 144, (S)-1-(4-(5-(3-(1-(3-fluorobenzyl)-1H-pyrazol-4-yl)-1H-pyrrolo[2,3-b]pyridin-5-yl)-6-methoxypyridin-2-yl)piperazin-1-yl)propan-2-ol], the IC50 was < 50 nM, the inhibition at 0.1 µM is 76% and the inhibition at 1 µM was 94%.

For `CS(=O)(=O)Nc1cc(-c2cnc3[nH]cc(-c4cnn(Cc5cc(F)cc(F)c5)c4)c3c2)ccc1F` [Example 79, N-(5-(3-(1-(3,5-difluorobenzyl)-1H-pyrazol-4-yl)-1H-pyrrolo[2,3-b]pyridin-5-yl)-2-fluorophenyl) methanesulfonamide], the IC50 is < 50 nM, the inhibition at 0.1 µM was 101% and the inhibition at 1 µM came to 102%.

With `O=C(CC1CC1)N1CCN(c2ccc(-c3cnc4[nH]cc(-c5cnn(Cc6cccc(F)c6)c5)c4c3)cn2)CC1` [Example 160, 2-cyclopropyl-1-(4-(5-(3-(1-(3-fluorobenzyl)-1H-pyrazol-4-yl)-1H-pyrrolo[2,3-b]pyridin-5-yl)pyridin-2-yl)piperazin-1-yl)ethanone], the IC50 was 50 to 250 nM, the inhibition at 0.1 µM amounted to 20% and the inhibition at 1 µM was 84%.

Take `NC(=O)CN1CCN(c2ccc(-c3cnc4[nH]cc(-c5cnn(Cc6cccc(F)c6)c5)c4c3)cn2)CC1` [Example 139, 2-(4-(5-(3-(1-(3-fluorobenzyl)-1H-pyrazol-4-yl)-1H-pyrrolo[2,3-b]pyridin-5-yl)pyridin-2-yl)piperazin-1-yl)acetamide]: the 50% inhibitory concentration (IC50) is < 50 nM, the inhibition at 0.1 µM turned out to be 99% and the inhibition at 1 µM was determined as 100%.

As for `Cc1nn(Cc2cccc(F)c2)c(C)c1-c1c[nH]c2ncc(-c3ccc(C4CCNCC4)c(F)c3)cc12` [Example 175, 5-(3-fluoro-4-(piperidin-4-yl)phenyl)-3-(1-(3-fluorobenzyl)-3,5-dimethyl-1H-pyrazol-4-yl)-1H-pyrrolo[2,3-b]pyridine], the IC50 was < 50 nM, the inhibition at 0.1 µM was 96% and the inhibition at 1 µM was determined as 100%.

On to `O=C(CO)N1CCN(c2ccc(-c3cnc4[nH]cc(-c5cnn(Cc6cccc(F)c6)c5)c4c3)cn2)CC1` [Example 154, 1-(4-(5-(3-(1-(3-fluorobenzyl)-1H-pyrazol-4-yl)-1H-pyrrolo[2,3-b]pyridin-5-yl)pyridin-2-yl)piperazin-1-yl)-2-hydroxyethanone], for which the IC50 is < 50 nM, the inhibition at 0.1 µM turned out to be 99% and the inhibition at 1 µM amounted to 100%.

Consider `CS(=O)(=O)Nc1cccc(-c2cnc3[nH]cc(-c4cnn(Cc5ccccc5F)c4)c3c2)c1` [Example 1, N-(3-(3-(1-(2-fluorobenzyl)-1H-pyrazol-4-yl)-1H-pyrrolo[2,3-b]pyridin-5-yl)phenyl)methanesulfonamide], for which the half-inhibitory concentration (IC50) lay in the range of 50 to 250 nM and the inhibition at 1 µM stood at 92%.

As to `CCS(=O)(=O)Nc1cc(-c2cnc3[nH]cc(-c4c(C)nn(Cc5cccc(F)c5)c4C)c3c2)ccc1OC` [Example 15, N-(5-(3-(1-(3-fluorobenzyl)-3,5-dimethyl-1H-pyrazol-4-yl)-1H-pyrrolo[2,3-b]pyridin-5-yl)-2-methoxyphenyl)ethanesulfonamide], the inhibition at 0.1 µM was 33% and the inhibition at 1 µM was 75%.

As to `c1ccc(CCn2cc(-c3c[nH]c4ncc(-c5ccc(N6CCNCC6)nc5)cc34)cn2)cc1` [Example 140, 3-(1-phenethyl-1H-pyrazol-4-yl)-5-(6-(piperazin-1-yl)pyridin-3-yl)-1H-pyrrolo[2,3-b]pyridine], the IC50 is < 50 nM, the inhibition at 0.1 µM was 80% and the inhibition at 1 µM amounted to 95%.

For `COc1ccc(-c2cnc3[nH]cc(-c4ccn(Cc5cc(F)cc(F)c5)n4)c3c2)cc1NS(C)(=O)=O` [Example 69, N-(5-(3-(1-(3,5-difluorobenzyl)-1H-pyrazol-3-yl)-1H-pyrrolo[2,3-b]pyridin-5-yl)-2-methoxyphenyl)methanesulfonamide], the inhibition at 0.1 µM worked out at 15% and the inhibition at 1 µM turned out to be 76%.

For the compound `CS(=O)(=O)Nc1cc(-c2cnc3[nH]cc(-c4cnn(CCc5ccccc5)c4)c3c2)ccc1F` [Example 77, N-(2-fluoro-5-(3-(1-phenethyl-1H-pyrazol-4-yl)-1H-pyrrolo[2,3-b]pyridin-5-yl)phenyl)methane sulfonamide], the IC50 is < 50 nM, the inhibition at 0.1 µM worked out at 85% and the inhibition at 1 µM was 100%.

Take `C[C@H](O)CN1CCN(c2cnc(-c3cnc4[nH]cc(-c5cnn(Cc6cccc(F)c6)c5)c4c3)cn2)CC1` [Example 163, (S)-1-(4-(5-(3-(1-(3-fluorobenzyl)-1H-pyrazol-4-yl)-1H-pyrrolo[2,3-b]pyridin-5-yl)pyrazin-2-yl)piperazin-1-yl)propan-2-ol]: the half-maximal inhibitory concentration (IC50) is < 50 nM, the inhibition at 0.1 µM was 88% and the inhibition at 1 µM was found to be 98%.

For `CS(=O)(=O)N1CCN(c2ccc(-c3cnc4[nH]cc(-c5cnn(Cc6cccc(F)c6)c5)c4c3)cn2)CC1` [Example 158, 3-(1-(3-fluorobenzyl)-1H-pyrazol-4-yl)-5-(6-(4-(methylsulfonyl)piperazin-1-yl)pyridin-3-yl)-1H-pyrrolo[2,3-b]pyridine], the IC50 was < 50 nM, the inhibition at 0.1 µM stood at 85% and the inhibition at 1 µM amounted to 94%.

Take `Cc1nn(Cc2cccc(F)c2)c(C)c1-c1c[nH]c2ncc(-c3cccc(OC4CCNCC4)c3)cc12` [Example 96, 3-(1-(3-fluorobenzyl)-3,5-dimethyl-1H-pyrazol-4-yl)-5-(3-(piperidin-4-yloxy)phenyl)-1H-pyrrolo[2,3-b]pyridine]: the IC50 was < 50 nM, the inhibition at 0.1 µM turned out to be 70% and the inhibition at 1 µM came to 100%.

As for `COc1ccc(-c2cnc3[nH]cc(-c4cnn(Cc5cc(F)ccc5F)c4)c3c2)cc1NS(C)(=O)=O` [Example 70, N-(5-(3-(1-(2,5-difluorobenzyl)-1H-pyrazol-4-yl)-1H-pyrrolo[2,3-b]pyridin-5-yl)-2-methoxyphenyl)methanesulfonamide], the IC50 was < 50 nM, the inhibition at 0.1 µM was 91% and the inhibition at 1 µM was 99%.

For the compound `CS(=O)(=O)Nc1cccc(-c2cnc3[nH]cc(-c4cnn(Cc5cc(F)cc(F)c5)c4)c3c2)c1` [Example 6, N-(3-(3-(1-(3,5-difluorobenzyl)-1H-pyrazol-4-yl)-1H-pyrrolo[2,3-b]pyridin-5-yl)phenyl) methane sulfonamide], the 50% inhibitory concentration (IC50) is < 50 nM and the inhibition at 1 µM is 99%.

For the compound `C[C@H](O)CN1CCN(c2ccc(-c3cnc4[nH]cc(-c5cnn(Cc6cccc(Cl)c6)c5)c4c3)cn2)CC1` [Example 153, (S)-1-(4-(5-(3-(1-(3-chlorobenzyl)-1H-pyrazol-4-yl)-1H-pyrrolo[2,3-b]pyridin-5-yl)pyridin-2-yl)piperazin-1-yl)propan-2-ol], the half-inhibitory concentration (IC50) is < 50 nM, the inhibition at 0.1 µM turned out to be 93% and the inhibition at 1 µM amounted to 100%.

As to `COc1cc(-c2cnc3[nH]cc(-c4cnn(Cc5cccc(F)c5)c4)c3c2)cnc1N1CCNCC1` [Example 174, 3-(1-(3-fluorobenzyl)-1H-pyrazol-4-yl)-5-(5-methoxy-6-(piperazin-1-yl)pyridin-3-yl)-1H-pyrrolo[2,3-b]pyridine], the IC50 is < 50 nM, the inhibition at 0.1 µM came out at 96% and the inhibition at 1 µM was found to be 100%.

Consider `Cc1cccc(Cn2cc(-c3c[nH]c4ncc(-c5ccc(N6CCN(C[C@H](C)O)CC6)nc5)cc34)cn2)c1` [Example 145, (S)-1-(4-(5-(3-(1-(3-methylbenzyl)-1H-pyrazol-4-yl)-1H-pyrrolo[2,3-b]pyridin-5-yl)pyridin-2-yl)piperazin-1-yl)propan-2-ol], for which the concentration for half-maximal inhibition (IC50) is < 50 nM, the inhibition at 0.1 µM was 83% and the inhibition at 1 µM turned out to be 99%.

On to `COc1ccc(-c2cnc3[nH]cc(-c4cnn(CCc5ccccc5F)c4)c3c2)cc1NS(C)(=O)=O` [Example 74, N-(5-(3-(1-(2-fluorophenethyl)-1H-pyrazol-4-yl)-1H-pyrrolo[2,3-b]pyridin-5-yl)-2-methoxyphenyl)methanesulfonamide], for which the concentration for half-maximal inhibition (IC50) is 50 to 250 nM, the inhibition at 0.1 µM was found to be 51% and the inhibition at 1 µM turned out to be 92%.

As to `Fc1cc(F)cc(Cn2cc(-c3c[nH]c4ncc(-c5ccc(C6CCNCC6)c(F)c5)cc34)cn2)c1` [Example 169, 3-(1-(3,5-difluorobenzyl)-1H-pyrazol-4-yl)-5-(3-fluoro-4-(piperidin-4-yl)phenyl)-1H-pyrrolo[2,3-b]pyridine], the IC50 is < 50 nM, the inhibition at 0.1 µM came out at 99% and the inhibition at 1 µM worked out at 100%.

On to `C[C@@H](O)CN1CCN(c2ncc(-c3cnc4[nH]cc(-c5cnn(Cc6cccc(F)c6)c5)c4c3)cc2F)CC1` [Example 180, (R)-1-(4-(3-fluoro-5-(3-(1-(3-fluorobenzyl)-1H-pyrazol-4-yl)-1H-pyrrolo[2,3-b]pyridin-5-yl)pyridin-2-yl)piperazin-1-yl)propan-2-ol], for which the IC50 was < 50 nM, the inhibition at 0.1 µM was determined as 93% and the inhibition at 1 µM stood at 100%.
